The source of these data is ChEMBL document CHEMBL1122718, “Benzylamines: synthesis and evaluation of antimycobacterial properties” (1984).

Usually MIC stands for the lowest concentration that inhibits growth of the organism. Low readings indicate greater potency, high ones weaker potency.

One experiment has as its system Mycobacterium avium. The experiment is described as follows: Minimum inhibitory concentration (MIC) of compound against Mycobacterium avium SN 304. Type of experiment: functional.
For the molecule `CCCCNCc1cc(F)cc(F)c1.Cl`, 3 µg/mL was the least that counted as inhibitory (MIC).

A further experiment deals with Mycobacterium lufu. In words: Minimum inhibitory concentration (MIC) of compound against Mycobacterium lufu L 209. It counts as functional.
Molecule `CCCCNCc1cc(F)cc(F)c1.Cl` came in with an MIC of 8 µg/mL.

For another experiment, the system named is Mycobacterium marinum. In words: Minimum inhibitory concentration (MIC) of compound against Mycobacterium marinum SN 1254. It counts as functional.
In turn, `CCCCNCc1cc(F)cc(F)c1.Cl` had an MIC of 6 µg/mL.

The test system of another experiment is Mycobacterium tuberculosis. In words: Compound was evaluated for the minimum inhibitory concentration (MIC) against Mycobacterium tuberculosis H 37 Rv. It counts as functional.
As to `CCCCNCc1cccc(F)c1.Cl`, the MIC amounted to 30 µg/mL.

The test system of another experiment is Mycobacterium tuberculosis. In words: Minimum inhibitory concentration (MIC) against Mycobacterium tuberculosis H 37 Ra. Type of experiment: functional.
Regarding `CCCCCCCNCc1ccccc1.Cl`, the minimum inhibitory concentration (MIC) is above 256 µg/mL. On the same count and under the same terms, in the case of `CNCc1cc(F)cc(F)c1.Cl` it was 32 µg/mL; in that of `CNCc1ccc(C(F)(F)F)cc1.Cl`, above 256 µg/mL; in that of `CCCCCCCCNCc1ccccc1.Cl` [BENZYL(OCTYL)AMINE HYDROCHLORIDE], above 256 µg/mL.

`Cl.NCc1cccc(C(F)(F)F)c1` showed an MIC above 256 µg/mL. Still for that read-out and setting: to `Cl.NCc1cccc(Br)c1` belongs 32 µg/mL; to `CCCCNCc1cc(F)cc(Cl)c1.Cl`, 19.2 µg/mL. Still for that read-out and setting: in the case of `CNCc1ccc(Cl)c(Cl)c1.Cl` it was above 256 µg/mL; in that of `CNCc1cc(F)cc(Cl)c1.Cl`, 19.2 µg/mL. The same measure, in the same setting: in the case of `Cl.NCc1ccc(Cl)c(C(F)(F)F)c1` it was above 256 µg/mL.

`CCCCCNCc1cc(F)cc(F)c1.Cl`: the minimum inhibitory concentration (MIC) amounted to 32 µg/mL. Molecule `Cl.NCc1ccccc1` came in with a minimum inhibitory concentration (MIC) of 76.8 µg/mL. The same measure, in the same setting: in the case of `CCNCc1ccc(Cl)c(Cl)c1.Cl` it was above 256 µg/mL; in that of `CCCNCc1cc(Cl)cc([N+](=O)[O-])c1.Cl`, 102 µg/mL; in that of `Cl.NCc1c(Cl)cccc1Cl`, above 256 µg/mL. Same read-out and setting: in the case of `CCCCNCc1cc(Cl)cc(Cl)c1.Cl` it was 64 µg/mL. Same read-out and setting: in the case of `CCCCCNCc1cccc(F)c1.Cl` it was 51.2 µg/mL; in that of `CNCc1cccc(F)c1.Cl`, 19.2 µg/mL. For `Cl.NCc1cc(F)cc(Cl)c1`, it took 32 µg/mL to inhibit growth (MIC).

On to `CNCc1cc(Cl)cc([N+](=O)[O-])c1.Cl`, for which the MIC turned out to be 128 µg/mL. Consider `CNCc1ccc(Br)cc1.Cl`, for which the minimum inhibitory concentration (MIC) is above 256 µg/mL. `CCCCCNCc1cccc([N+](=O)[O-])c1.Cl`: the minimum inhibitory concentration (MIC) is above 256 µg/mL. On the same count and under the same terms, to `CCCCCNCc1cccc(C#N)c1.Cl` belongs 76.8 µg/mL; to `CCNCc1cc(Cl)cc(Cl)c1.Cl`, 17.9 µg/mL; to `CC(C)NCc1cccc(Cl)c1.Cl`, above 256 µg/mL.

Turning to `CCCCNCc1cccc(C(F)(F)F)c1.Cl`, the MIC was above 256 µg/mL. Still for that read-out and setting: in the case of `Cl.NCc1cccc(I)c1` it was 179 µg/mL; in that of `CNCc1cccc([N+](=O)[O-])c1.Cl`, 256 µg/mL; in that of `CNCc1ccc(Cl)c(C(F)(F)F)c1.Cl`, above 256 µg/mL. On the same count and under the same terms, in the case of `CCNCc1ccc(OC)cc1.Cl` it was above 256 µg/mL; in that of `CNCc1cccc(C(F)(F)F)c1.Cl`, above 256 µg/mL. Still for that read-out and setting: in the case of `CNCc1cccc(Br)c1.Cl` it was 19.2 µg/mL; in that of `CC(C)NCc1cccc(C#N)c1.Cl`, above 256 µg/mL. For `CCNCc1cccc(Br)c1.Cl`, inhibition of growth (MIC) required 64 µg/mL. Same read-out and setting: to `CCCCNCc1c(Cl)cccc1Cl.Cl` belongs above 256 µg/mL; to `CNCc1ccccc1Cl.Cl`, above 256 µg/mL; to `CCCCNCc1ccc(C(F)(F)F)cc1.Cl`, above 256 µg/mL. `CCNCc1cc(F)cc(F)c1.Cl` had a minimal inhibitory concentration (MIC) of 44.8 µg/mL.

For `COc1ccc(CN)cc1.Cl`, the MIC is above 256 µg/mL. Consider `CCCNCc1ccc(Cl)c(C(F)(F)F)c1.Cl`, for which the MIC is above 256 µg/mL.

Consider `CCCCNCc1ccc(Cl)cc1Cl.Cl`, for which the MIC is above 256 µg/mL. Take `CCCNCc1cccc([N+](=O)[O-])c1.Cl`: the minimal inhibitory concentration (MIC) was above 256 µg/mL. `CCCNCc1cc(F)cc(Cl)c1.Cl` returned a minimal inhibitory concentration (MIC) of 25.6 µg/mL.

`CCCCNCc1cccc(I)c1.Cl` gave an MIC of 205 µg/mL. Same read-out and setting: to `Cl.NCc1cccc(F)c1` belongs 51.2 µg/mL; to `CCCNCc1cccc(Cl)c1.Cl`, 17.9 µg/mL. As for `CNCc1c(Cl)cccc1Cl.Cl`, the MIC is above 256 µg/mL. On the same count and under the same terms, in the case of `CCCCNCc1cccc(Cl)c1.Cl` it was 64 µg/mL; in that of `CCCNCc1cc(F)cc(F)c1.Cl`, 19.2 µg/mL. On the same count and under the same terms, in the case of `CNCc1cccc(C#N)c1.Cl` it was 51.2 µg/mL; in that of `CCNCc1cccc(Cl)c1.Cl`, 25.6 µg/mL. Still for that read-out and setting: to `CCCCNCc1ccccc1.Cl` belongs 51.2 µg/mL.

Regarding `CCCCNCc1ccccc1Br.Cl`, the MIC is above 256 µg/mL.

The molecule `CCCNCc1cc(Cl)ccc1Cl.Cl` showed an MIC above 256 µg/mL. Still for that read-out and setting: in the case of `Cl.NCc1cc(Cl)cc(Cl)c1` it was 20.4 µg/mL; in that of `CCCCNCc1ccccc1Cl.Cl`, above 256 µg/mL; in that of `CNCc1ccc(Cl)cc1.Cl`, above 256 µg/mL. With `CCCNCc1ccccc1.Cl`, the minimal inhibitory concentration (MIC) is 51.2 µg/mL.

For the molecule `CC(C)NCc1cccc([N+](=O)[O-])c1.Cl`, the MIC is above 256 µg/mL. The same measure, in the same setting: to `CC(C)NCc1cccc(C(F)(F)F)c1.Cl` belongs above 256 µg/mL; to `CCNCc1cc(Cl)cc([N+](=O)[O-])c1.Cl`, 102 µg/mL. Still for that read-out and setting: in the case of `CCCCCCNCc1ccccc1.Cl` it was above 256 µg/mL; in that of `CCCNCc1c(Cl)cccc1Cl.Cl`, above 256 µg/mL.

Consider `CCCCNCc1cc(Cl)ccc1Cl.Cl`, for which the MIC is above 256 µg/mL. The same measure, in the same setting: to `CCNCc1cccc(C(F)(F)F)c1.Cl` belongs above 256 µg/mL; to `CCCCCNCc1cccc(Cl)c1.Cl`, 51.2 µg/mL. `CCCCCNCc1cccc(C(F)(F)F)c1.Cl` gave a minimal inhibitory concentration (MIC) above 256 µg/mL.

`CCCCNCc1ccc(Cl)c(Cl)c1.Cl`: the MIC is above 256 µg/mL. On the same count and under the same terms, to `CCNCc1ccccc1Br.Cl` belongs above 256 µg/mL. Same read-out and setting: to `Cl.N#Cc1cccc(CN)c1` belongs 128 µg/mL; to `CCCNCc1cccc(F)c1.Cl`, 25.6 µg/mL; to `CCCCNCc1ccc(Cl)cc1.Cl`, above 256 µg/mL.

Molecule `CCNCc1cccc([N+](=O)[O-])c1.Cl` had an MIC above 256 µg/mL.

`CCNCc1c(Cl)cccc1Cl.Cl` gave a minimum inhibitory concentration (MIC) above 256 µg/mL.

In the case of `CCCNCc1ccc(OC)cc1.Cl`, the MIC was above 256 µg/mL.

`CCCCNCc1cc(Cl)cc([N+](=O)[O-])c1.Cl` gave an MIC of 205 µg/mL. Still for that read-out and setting: in the case of `CCCNCc1cc(Cl)cc(Cl)c1.Cl` it was 20.4 µg/mL; in that of `CCCCNCc1ccc(Br)cc1.Cl`, above 256 µg/mL; in that of `CNCc1ccc(OC)cc1.Cl`, above 256 µg/mL. Turning to `Cl.NCc1cc(Cl)ccc1Cl`, the MIC came to 76.8 µg/mL. Same read-out and setting: in the case of `CCNCc1ccc(C(F)(F)F)cc1.Cl` it was above 256 µg/mL; in that of `CCNCc1ccc(Cl)cc1Cl.Cl`, above 256 µg/mL; in that of `CCCNCc1ccc(C(F)(F)F)cc1.Cl`, above 256 µg/mL. Same read-out and setting: to `CCCNCc1cccc(C(F)(F)F)c1.Cl` belongs above 256 µg/mL; to `Cl.NCc1cc(F)cc(F)c1`, 57.6 µg/mL; to `Cl.NCc1ccc(Cl)cc1Cl`, above 256 µg/mL.

As for `CCCCCCCNCc1cc(Cl)cc(Cl)c1.Cl`, the MIC was determined as 154 µg/mL. On the same count and under the same terms, to `CCNCc1cccc(I)c1.Cl` belongs above 256 µg/mL; to `CCCNCc1cccc(C#N)c1.Cl`, 76.8 µg/mL; to `CNCc1cccc(I)c1.Cl`, 154 µg/mL. Still for that read-out and setting: to `CNCc1ccc(Cl)cc1Cl.Cl` belongs above 256 µg/mL; to `Cl.NCc1ccc(C(F)(F)F)cc1`, above 256 µg/mL; to `CCNCc1cccc(C#N)c1.Cl`, 102 µg/mL. The same measure, in the same setting: to `CCNCc1cc(Cl)ccc1Cl.Cl` belongs above 256 µg/mL; to `Cl.NCc1ccc(Cl)c(Cl)c1`, above 256 µg/mL; to `CCCCNCc1cc(F)cc(F)c1.Cl`, 6.4 µg/mL. `CCNCc1cc(F)cc(Cl)c1.Cl` returned a minimum inhibitory concentration (MIC) of 32 µg/mL.

In turn, `CCCNCc1ccc(Cl)cc1Cl.Cl` displayed an MIC above 256 µg/mL.

As for `CCCCNCc1cccc(C#N)c1.Cl`, it took 51.2 µg/mL to inhibit growth (MIC). With `CCNCc1ccccc1.Cl`, the MIC is 205 µg/mL. Same read-out and setting: in the case of `Cl.NCc1cccc(Cl)c1` it was 17.9 µg/mL; in that of `CCCCNCc1cccc(F)c1.Cl`, 25.6 µg/mL; in that of `CC(C)NCc1cccc(F)c1.Cl`, above 256 µg/mL. On the same count and under the same terms, in the case of `CCCNCc1ccc(Cl)c(Cl)c1.Cl` it was above 256 µg/mL.

In the case of `CCCCNCc1cccc([N+](=O)[O-])c1.Cl`, the minimal inhibitory concentration (MIC) was above 256 µg/mL. Still for that read-out and setting: to `CCNCc1ccc(Cl)c(C(F)(F)F)c1.Cl` belongs above 256 µg/mL. In turn, `CCCNCc1cccc(I)c1.Cl` showed an MIC of 256 µg/mL. On the same count and under the same terms, to `CCCCCNCc1cc(Cl)cc(Cl)c1.Cl` belongs 128 µg/mL; to `Cl.NCc1cccc([N+](=O)[O-])c1`, 179 µg/mL. On the same count and under the same terms, to `CCNCc1cccc(F)c1.Cl` belongs 51.2 µg/mL; to `CCCCCNCc1ccccc1.Cl`, 154 µg/mL.

`CCCCNCc1cccc(Br)c1.Cl` returned an MIC of 38.4 µg/mL.

In turn, `CNCc1ccccc1.Cl` displayed an MIC of 102 µg/mL. Still for that read-out and setting: to `CNCc1cc(Cl)ccc1Cl.Cl` belongs above 256 µg/mL. Same read-out and setting: to `CCCCNCc1ccc(Cl)c(C(F)(F)F)c1.Cl` belongs above 256 µg/mL; to `CCCNCc1cccc(Br)c1.Cl`, 51.2 µg/mL.

The subject of a further experiment is Mycobacterium tuberculosis. The experiment is described as follows: Minimum inhibitory concentration (MIC) of compound against Mycobacterium tuberculosis H 37 Rv. Type of experiment: functional.
Consider `CCCCNCc1cc(F)cc(F)c1.Cl`, for which the lowest concentration to inhibit growth (MIC) was 4 µg/mL.

The test system of another experiment is Mycolicibacterium smegmatis. In words: Minimum inhibitory concentration (MIC) of compound against Mycobacterium smegmatis ATCC 607. It counts as functional.
In turn, `CCCCNCc1cc(F)cc(F)c1.Cl` came in with an MIC of 32 µg/mL.
